Laboratory results: PubChem BioAssay AID493191 (Broad Institute, 2011)

Test system: MALME3 melanoma viability, CellTiter-Glo luminescence, 24 h
Assay: MALME3 melanoma cell viability loss, dose response, orthogonal assay for MITF inhibitor project, CellTiter-Glo, cherry-picked (AID 493191)

| Compound | AC50 [µM] |
| --- | --- |
| COc1ccc(C(=O)/C(C#N)=N/Nc2ccc([N+](=O)[O-])cc2)cc1 | 16 |
| COc1ccc(NC(=O)CCC(=O)N/N=C/c2ccc([N+](=O)[O-])s2)cc1 | 28.2 |
| Cc1oc(-c2ccc(Cl)cc2)nc1CN1CCC(C(=O)NCCCN2CCCC(C)C2)CC1 (centres undefined) | 24.4 |
| Cc1[nH]nc2nc(SCC(=O)NCCC3=CCCCC3)n(-c3ccc(Br)cc3)c(=N)c12 | 20.5 |
| CCOCCCNC(=O)/C(C#N)=C/c1ccc([N+](=O)[O-])o1 | 12.6 |
| CCN1CCN(C2=C(NS(=O)(=O)c3ccc(Br)cc3)C(=O)c3ccccc3C2=O)CC1 | 20.1 |
| Cn1c(SC2=CS(=O)(=O)c3ccccc32)nc2ccccc21 | 19.7 |
| CC(=O)OCCNc1cc(Sc2nc3ccccc3[nH]2)c2nonc2c1[N+](=O)[O-] | 13.6 |
| CC(C)(c1ccccc1)c1ccc(OCC(O)CNC2CCN(Cc3ccccc3)CC2)cc1 (centres undefined) | 13.5 |
| O=C(CNc1cccc2ccccc12)N/N=C/c1ccc([N+](=O)[O-])o1 | 16.3 |
| O=C(Cn1ncc(Cl)c(Cl)c1=O)Nc1ccc2c(c1)OCO2 | 25.1 |
| CCOc1ccc2nc(NC3=NC(c4ccc(OC)cc4)CC(=O)N3)nc(C)c2c1 (centres undefined) | 24.6 |
| CCN(CC)CCNC(=O)c1c(C)n(-c2ccccc2)c2cc(Br)c(OC)cc12 | 18.9 |
| CCCC(=O)N1CCN(c2ccc(NC(=O)c3ccc([N+](=O)[O-])o3)cc2)CC1 | 8.62 |
| N=c1n(CCN2CCCC2)c2ccccc2n1CC(O)c1ccc(Cl)c(Cl)c1 (centres undefined) | 22.5 |
| O=C(COc1ccc(Cl)cc1Cl)Nc1ccccn1 | 14.5 |
| Cc1cc(C)c2sc(N(CCCN(C)C)C(=O)COc3ccc(Cl)cc3)nc2c1 | 32.7 |
| CC(C)C1CC(CCNCc2ccc(N(C)C)cc2)(c2ccccc2)CCO1 (centres undefined) | 29.5 |
| O=C(NC1CCCC(C(F)(F)F)C1)c1ccc([N+](=O)[O-])o1 (centres undefined) | 20.8 |
| CCOc1ccc(-c2ccc(SC)nn2)cc1 | 26.5 |
| O=C(NCC1CCCCC1)C1(CC2CC(c3cccc(Br)c3)=NO2)CCNCC1 (centres undefined) | 24.4 |
| CCN1CCN(c2ccc(S(=O)(=O)N3CCCCC3)cc2NC(=O)/C=C/c2cccc(OC)c2OC)CC1 | 29.7 |

| Compound | AC50 [µM] |
| --- | --- |
| Cc1cc(Sc2ncnc(N)c2[N+](=O)[O-])ncn1 | 34 |
| COC(=O)C1=C(C)N(Cc2ccccc2)C(=NCC(C)C)N[C@H]1c1cccc(C(F)(F)F)c1 | 16.9 |
| CC(=O)Nc1ccc(S(=O)(=O)NC2=C(N3CCN(C)CC3)C(=O)c3ccccc3C2=O)cc1 | 8.92 |
| O=C1C(Cl)=C(N2CCN(c3ccccc3[N+](=O)[O-])CC2)C(=O)c2ccccc21 | 18.2 |
| CC1CCC(C(C)C)C(OC(=O)Cn2c(-c3ccc(F)cc3)[n+](C)c3ccccc32)C1 (centres undefined) | 12.5 |
| CCN1CCN(C2=C(NS(=O)(=O)c3ccc(C)cc3)C(=O)c3ccccc3C2=O)CC1 | 11.9 |
| Oc1c(CN2CCCCC2)cc(COCc2ccccc2)c2cccnc12 | 10.4 |
| N#CC(C#N)=C1C=CC=CN1/C(=C\c1ccco1)C(=O)c1ccc(Cl)cc1 | 27.3 |
| O=C(COc1ccccc1)N/N=C/c1ccc([N+](=O)[O-])o1 | 18.6 |
| c1ccc(CSc2nnc(-c3ccco3)n2Cc2ccco2)cc1 | 26.4 |
| O=C(N/N=C\c1ccc([N+](=O)[O-])s1)c1cncc(Br)c1 | 20.2 |
| CCS(=O)(=O)c1ccc(N=Nc2ccc(O)c3ncccc23)c(OC)c1 | 5.85 |
| CC(C)(C)C(=O)Cn1ncc(Br)c(Br)c1=O | 17.7 |
| O=C1Nc2ccc(Br)cc2/C1=C/C(=O)c1ccc2c(c1)OCO2 | 32 |
| O=C(CCl)N1N=C(c2ccco2)CC1c1cccs1 (centres undefined) | 23 |
| CCN(CC)CCC(=O)N1C/C(=C/c2ccccc2)C(=O)/C(=C\c2ccccc2)C1 | 28.3 |
| CC1CCCC(NCC(O)COC(c2ccc(F)cc2)c2ccc(F)cc2)C1C (centres undefined) | 20.5 |
| CN(C)S(=O)(=O)c1ccc(-c2csc(N/N=C/c3ccc(O)cc3)n2)cc1 | 21.2 |
| Oc1cc(NCCN2CCOCC2)cc2cccnc12 | 24.6 |
| CC1=CC2/C=C(\C)CCC(O)C(O)/C=C/C(=O)C23C(=O)NC(CC(C)C)C3C1C (centres undefined) | 12.6 |
| COc1ccccc1-c1cc(C(F)(F)F)nc(S(C)(=O)=O)n1 | 19.6 |
| COC(=O)c1ccc2c(c1O)C(=O)c1ccccc1C2=O | 2.82 |

| Compound | AC50 [µM] |
| --- | --- |
| CS(=O)(=O)N1CCN(c2ccc(NC(=O)c3ccc([N+](=O)[O-])o3)cc2)CC1 | 16.7 |
| C#CCCc1ccccc1/C=[N+](/C)[O-] | 28.8 |
| CC(NC(=O)c1ccc([N+](=O)[O-])o1)C12CC3CC(CC(C3)C1)C2 (centres undefined) | 31.9 |
| CC1=NNC(=O)/C1=C\c1cn(-c2ccccc2)nc1-c1ccc(F)cc1 | 25.9 |
| CCN1/C(=C/c2cc[n+](C)cc2)C=Cc2cc(C)ccc21 | 16.9 |
| O=C1C(Nc2ccccc2)=C(N2CCCCC2)C(=O)c2ccccc21 | 18.2 |
| CCN(CC)S(=O)(=O)c1ccc(N2CCCC2)c(NC(=O)c2ccc([N+](=O)[O-])o2)c1 | 19.5 |
| CC(C)(C)c1ccc(OCCCNCc2ccccc2)cc1 | 27.4 |
| CC(C)Oc1ccc(C(CCN)C2CCCCC2)cc1 (centres undefined) | 14.6 |
| CCNC1=C(Cl)C(=O)c2ccccc2C1=O | 15.3 |
| CCSCCc1nnc(NC(=O)Nc2cccc(C(F)(F)F)c2)s1 | 29 |
| COc1ccc(C(=O)/C=C/C(=O)N(CC(=O)NC2CCCCC2)Cc2ccccc2OC)c(O)c1 | 4.63 |
| COc1cc(/C=N/NC(N)=O)c(Br)cc1OCC(=O)Nc1ccccc1C | 29.4 |
| CCC(C)(C)c1ccc(OCCCC[n+]2ccccc2)c(C(C)(C)CC)c1 | 10.8 |
| CCN1CCN(c2ccc(NC(=O)c3ccc([N+](=O)[O-])o3)cc2Cl)CC1 | 14.4 |
| C/C(=N/NC(=O)C(O)(c1ccccc1)c1ccccc1)c1ccc([N+](=O)[O-])o1 | 34.1 |
| CCOC(=O)c1ccc(NC2=CC(=O)C(=O)c3ccccc32)cc1 | 5.16 |
| O=C(Nc1ccc(F)cc1)c1nc(S(=O)(=O)Cc2ccccc2)ncc1Cl | 12 |
| Cc1ccc(NC(=O)CCC(=O)N/N=C/c2ccc([N+](=O)[O-])o2)cc1C | 21.9 |
| O=C(CNC(=O)c1cccc(F)c1)N/N=C/c1ccc([N+](=O)[O-])s1 | 25.1 |
| O=[N+]([O-])c1ccc(/C=N/N=C/c2ccc([N+](=O)[O-])o2)o1 | 12.9 |
| Cc1ccc(-n2nnnc2CNC(=O)c2ccc([N+](=O)[O-])o2)cc1C | 21.5 |

| Compound | AC50 [µM] |
| --- | --- |
| CCC(=O)N1CCN(c2ccc(NC(=O)c3ccc([N+](=O)[O-])o3)cc2Cl)CC1 | 9.97 |
| O=C(/C=C/c1ccc([N+](=O)[O-])s1)N1CCCCC1 | 30.7 |
| CC(C)(C)NC(=O)CCN(/N=C/c1ccc([N+](=O)[O-])o1)C1=NS(=O)(=O)c2ccccc21 | 31.9 |
| O=C(CCl)N1CCN(S(=O)(=O)c2ccc3c(c2)CCC3)CC1 | 25.5 |
| COc1ccc2nc(N3CCN(C(=O)c4ccc([N+](=O)[O-])o4)CC3)sc2c1 | 21.7 |
| CC1CC2(C)Oc3ccccc3CC2C(C)C1CNCCCN(C)C (centres undefined) | 15.9 |
| CC(C)(C)C(=O)/C(=C/c1ccncc1)n1cncn1 | 21.9 |
| CC(=O)c1c(C)oc2c1C(=O)c1ccccc1C2=O | 21.2 |
| O=C(Nc1ccccc1N1CCN(C(=O)c2ccccc2)CC1)c1ccc([N+](=O)[O-])o1 | 27.1 |
| COc1ccc(N(Cc2cc(=O)[nH]c3ccccc23)C(=O)CCl)cc1 | 15.8 |
| O=C(CNc1cccc([N+](=O)[O-])c1)N/N=C/c1ccc([N+](=O)[O-])o1 | 16.9 |
| COc1ccc(-c2cc3c(nn2)-c2ccccc2C3=O)cc1 | 14.5 |
| COc1cc(/C=N/N=C(N)N)ccc1OCc1ccc(Cl)cc1 | 19.9 |
| Cc1ccc(-c2nnc(SCC(=O)Nc3ccccc3F)o2)cc1 | 19.7 |
| Cc1c(NC(=O)c2ccc([N+](=O)[O-])o2)cccc1-c1nc2ncccc2o1 | 15.4 |
| CS(=O)(=O)c1ncc(Cl)c(C(=O)Nc2ccc3ccccc3c2)n1 | 15.2 |
| Cc1ccc(NCC(=O)N/N=C\c2ccc([N+](=O)[O-])o2)cc1 | 25.3 |
| O=C(N/N=C/c1ccc(O)c2ncccc12)c1cccc(Br)c1 | 14.7 |
| Cc1ccccc1-c1nc(-c2ccccn2)no1 | 22.2 |
| CC(=O)Nc1ccc(Nc2c3ccccc3nc3ccccc23)cc1 | 25.2 |
| CN1CCC(N(C)C(=O)/C=C/c2cn(-c3ccccc3)nc2-c2cccs2)CC1 | 29.7 |
| CC1CN(C(=O)CCC(=O)NCCCN2CCC(Cc3ccccc3)CC2)c2cc(Cl)ccc2O1 (centres undefined) | 19.4 |

| Compound | AC50 [µM] |
| --- | --- |
| O=C1/C(=N\S(=O)(=O)c2cccs2)C([n+]2ccccc2)=C([O-])c2ccccc21 | 3.81 |
| O=C(Nc1ccc(N2CCN(C(=O)c3ccccc3)CC2)cc1)c1ccc([N+](=O)[O-])o1 | 9.02 |
| COc1cccc(CNCCc2c[nH]c3ccccc23)c1OCc1ccccc1 | 17.9 |
| COc1ccc(C(=O)/C=C/C(=O)N(CC(=O)NC2CCCCC2)CC2CCCO2)c(O)c1 (centres undefined) | 4.8 |
| COc1ccc(C(=O)/C=C/C(=O)N(CC(=O)NC2CCCCC2)Cc2ccc(F)cc2)c(O)c1 | 7.85 |
| COc1cccc(C(=O)Oc2c(CN3CCOCC3)cc(Cl)c3cccnc23)c1 | 30.7 |
| Nc1nc2ccccc2n1/N=C/c1ccc([N+](=O)[O-])s1 | 16.3 |
| O=C(N/N=C/c1ccc([N+](=O)[O-])o1)c1ccc(O)cc1 | 10.9 |
| O=c1c(Cl)c2oc3ccccc3nc-2c2ccccc12 | 14.3 |
| O=C1c2cc([N+](=O)[O-])cc3cc([N+](=O)[O-])cc(c23)C(=O)N1c1ccccn1 | 21.9 |
| Cc1ccc(C(=O)N/N=C/c2ccc([N+](=O)[O-])s2)cc1 | 22.6 |
| Cc1cc(C)c2c(N)c3cccc(C)c3nc2n1 | 27.9 |
| Cc1ccc2nc(N(CCCN(C)C)C(=O)c3ccc4c(c3)CCCC4)sc2c1 | 21.6 |
| CC1CCC(C(C)C)C(OC(=O)Cn2c(-c3ccc(Br)cc3)[n+](C)c3ccccc32)C1 (centres undefined) | 10.1 |
| CCCNC(=O)COC(=O)c1ccccc1C(=O)c1ccc(Cl)c([N+](=O)[O-])c1 | 16.3 |
| Cc1nc2ccccc2n1/N=C/c1ccc([N+](=O)[O-])s1 | 26.4 |
| Cc1cccc(NC2=C(NC(=O)c3ccccc3)C(=O)c3ccccc3C2=O)c1 | 25.3 |
| CN(C)CCCN(C(=O)CCc1ccccc1)c1nc2ccc(Br)cc2s1 | 19.2 |
| FC(F)(F)c1cc(CCN2CCNC[C@@H]2Cc2ccccc2)cc(C(F)(F)F)c1 | 19.3 |
| CCC(=O)N1CCN(c2ccc(NC(=O)c3ccc([N+](=O)[O-])o3)cc2)CC1 | 12.7 |
| CN(C)CC1CC/C(=C\c2ccc(O)cc2)C1=O (centres undefined) | 25.9 |
